Measurements published in patent US20050054716A1, “Pharmaceutical compositions and methods of using taxane derivatives” (priority 2002, published 2005).
≈ marks a conversion by molar mass, not a printed value.

Experiments:
Format in all cases: physicochemical
[1] = Intrinsic aqueous solubility; conditions: desirable physiological pH range
Excerpt: Therefore, it was necessary to formulate the compound in such a way to get the desired solubility at a physiological pH and maintain stability prior to administration.

[2] = Solubility in solutions of dehydrated alcohol and POE castor oil; conditions: Dehydrated Alcohol 7.50% v/v, POE Castor Oil 4% v/v
Protocol: However, this solution cannot be injected directly into patients as the non-aqueous components exceed 20%, thus potentially causing irritation at the injection site. […] It has been shown that the precipitation can be avoided by inclusion of a co-solvent such as polyoxyethylated (POE) castor oil in the formulation. Subsequently, solubility of the drug substance was determined in solutions containing various amounts of dehydrated alcohol and POE castor oil. Approximately 20 mg of drug was added to 3 mL aliquots of the solutions shown below in Table III. Samples were stirred for 16 hours, filtered trough 0.45 micron nylon syringe filters and analyzed by HPLC for drug concentration.

[3] = Dilution of 15 mg/mL ethanol/tartrate solution with aqueous diluents; conditions: 15 mg/mL in 75% ethanol/10 mM tartrate buffer diluted with 0.9% sodium chloride injection or 5% dextrose injection
[4] = Stability of antioxidant formulation at 25° C. for 4 months; conditions: for Appearance / Potency / pH: formulation with 0.1% each of three antioxidants
Protocol: A formulation containing 1.5 mg/mL of Compound 1a, 0.075 mL/mL of ethanol, 0.04 mL/mL of POE castor oil in a tartrate buffer and containing 0.1% each of sodium formaldehyde sulfoxylate, L-cysteine HCl and ascorbic acid was prepared. Samples were placed on stability at 25° C. for 4 months. […] Additionally, there were no changes in potency or total oxidative degradants for the samples.

[5] = Effect of pH on stability, 16.7% v/v ethanol:0.1M citrate buffers; conditions: 0.2 mg drug/mL, 2 days at 85° C.
Protocol: (§1) The effect of pH on the drug substance stability was also studied. The buffer pH providing maximum stability was determined by comparing the stability of prototype formulations of the drug substance. […] Relative area percents of drug peaks were evaluated following 2 days storage at 85° C. […] Subsequent experiments evaluated stability (1 mg drug/mL) in 75% v/v ethanol:0.01M tartrate buffer. Three mL aliquots of samples were dispensed into 5 cc Type I glass vials and closed with West 4405/50 20 mm stoppers. Percent drug substance remaining, impurities and degradants were evaluated following 18 days storage at 50° C. and compared to initial values.

[6] = Effect of pH on stability, 75% v/v ethanol:0.01M tartrate buffer; conditions: 18 days at 50° C.
Protocol: as §1

[7] = Stability in solution containing ethanol and POE castor oil at 50° C.
Excerpt: However, as shown below in Table IV, drug degradation occurs in a solution containing ethanol and POE castor oil due to peroxide impurities present in POE castor oil. […] As shown below, the stability of the solution containing POE castor oil was much lower than the injection solution without the co-solvent.

[8] = during 4 months of storage at 25° C.

ionization [1]: does not ionize
Solubility [2]: 2380 µg/mL (≈ 2600 µM)
effect of aqueous dilution [3]: drug precipitation
changes in appearance or pH [4, 8]: no significant changes
changes in potency or total oxidative degradants [4, 8]: no changes
Appearance ([4]; 2 Month at 25° C.): Clear, colorless
Potency ([4]; 2 Month at 25° C.): 1460 µg/mL (≈ 1600 µM)
pH ([4]; 2 Month at 25° C.): 3.56
Appearance ([4]; 4 Month at 25° C.): Clear, colorless
Potency ([4]; 4 Month at 25° C.): 1480 µg/mL (≈ 1620 µM)
pH ([4]; 4 Month at 25° C.): 3.57
Appearance ([4]; Initial): Clear, colorless
Potency ([4]; Initial): 1440 µg/mL (≈ 1580 µM)
pH ([4]; Initial): 3.71
buffer pH of best stability [5]: 4.5
apparent pH of most stable solution [6]: 5.4
tartrate buffer pH of most stable solution [6]: 3.8
Total Impurities ([7]; 6 days @ 50° C.): 10.9 area %
Total Impurities ([7]; 16 days @ 50° C.): 16.5 area %
Total Impurities ([7]; Initial): 2.1 area %
Structure (SMILES): CSCO[C@H]1C[C@H]2OC[C@@]2(OC(C)=O)[C@H]2[C@H](OC(=O)c3ccccc3)[C@]3(O)C[C@H](OC(=O)[C@H](O)[C@@H](NC(=O)c4ccccc4)c4ccccc4)C(C)=C([C@@H](OC(C)=O)C(=O)[C@]12C)C3(C)C [Compound Ia, 7-O-methylthiomethylpaclitaxel]
